Legend:
WspR = target: T1, WspR (Pseudomonas aeruginosa, UniProt Q9HXT9); assay: HPLC of c-di-GMP formation; format: biochemical; conditions: 500 uM GTP, 5 uM enzyme, Tris-HCl pH 7.8, 250 mM NaCl, 25 mM KCl, 10 mM MgCl2, 37 C, 120 min
T1 construct: wspR in pET28b(+) (BamHI/HindIII), His tag, Ni-NTA purified; tag removal not mentioned

ProE = target: T2, ProE (Pseudomonas aeruginosa, UniProt Q9HTQ9); assay: HPLC of pGpG formation, […] nm; format: biochemical; conditions: 50 uM c-di-GMP, 0.08 uM enzyme, Tris-HCl pH 8.0, 20 mM KCl, 5 mM MgCl2, 37 C, 20 min
T2 construct: gene PA5295; coding region in pET28b(+) (BamHI/HindIII), His tag, Ni-NTA purified; GGDEF 113-282, EAL 292-538; tag removal not mentioned
T2 sequence (Q9HTQ9 entry or part of it): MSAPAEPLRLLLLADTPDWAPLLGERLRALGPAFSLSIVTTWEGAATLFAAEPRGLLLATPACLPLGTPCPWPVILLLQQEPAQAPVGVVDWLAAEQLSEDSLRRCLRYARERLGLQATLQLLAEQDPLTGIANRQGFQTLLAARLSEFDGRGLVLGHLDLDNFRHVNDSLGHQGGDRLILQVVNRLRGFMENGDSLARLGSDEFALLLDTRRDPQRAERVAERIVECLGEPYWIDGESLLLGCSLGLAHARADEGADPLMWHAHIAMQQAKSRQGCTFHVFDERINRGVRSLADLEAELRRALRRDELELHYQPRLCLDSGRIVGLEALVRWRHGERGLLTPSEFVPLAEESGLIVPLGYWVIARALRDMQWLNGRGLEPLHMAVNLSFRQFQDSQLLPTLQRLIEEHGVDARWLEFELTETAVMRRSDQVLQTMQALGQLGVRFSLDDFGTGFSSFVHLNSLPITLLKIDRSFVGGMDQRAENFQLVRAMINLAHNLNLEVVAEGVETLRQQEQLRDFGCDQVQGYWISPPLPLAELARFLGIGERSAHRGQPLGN

T1 sequence (Q9HXT9 entry or part of it): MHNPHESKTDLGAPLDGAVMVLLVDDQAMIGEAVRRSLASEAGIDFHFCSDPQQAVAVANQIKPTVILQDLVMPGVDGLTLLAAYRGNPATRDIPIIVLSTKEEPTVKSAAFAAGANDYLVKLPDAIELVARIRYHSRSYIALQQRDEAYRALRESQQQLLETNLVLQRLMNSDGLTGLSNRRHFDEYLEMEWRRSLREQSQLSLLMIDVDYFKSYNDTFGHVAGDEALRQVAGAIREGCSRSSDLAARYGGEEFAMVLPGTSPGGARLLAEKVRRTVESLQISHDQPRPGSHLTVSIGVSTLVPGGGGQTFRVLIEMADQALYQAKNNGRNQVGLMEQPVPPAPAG

Row | SMILES | HPLC of c-di-GMP formation (WspR) | HPLC of pGpG formation, 254 nm (ProE)
1 | Nc1nc2c(ncn2[C@@H]2O[C@H](COP(=O)(O)OP(=O)(O)OP(=O)(O)O)[C@@H](O)[C@H]2O)c(=O)[nH]1 [GTP] | the control protein WspR could convert most GTP into c-di-GMP | –
2 | Nc1nc2c(ncn2[C@@H]2O[C@@H]3COP(=O)(O)O[C@H]4[C@@H](O)[C@H](n5cnc6c(=O)[nH]c(N)nc65)O[C@@H]4COP(=O)(O)O[C@H]3[C@H]2O)c(=O)[nH]1 [c-di-GMP] | – | HPLC analysis showed that the degradation product pGpG was produced
